Data: patent US5210193A, “Piperazine derivatives” (American Cyanamid Company, priority 1990, dated 1993)
Converted amounts (≈) assume the structure as drawn.

How the values were obtained:
Assay in all cases: in vitro antibacterial MIC, agar plate dilution
Type in all cases: cell-based
[1] = system: Escherichia coli CMC 84-16; settings: Escherichia coli, CMC8416, 18 h, 35° C., read-out: MIC
Method in brief: (§1)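 Read-out is visible growth inhibition on Mueller-Hinton agar dilution plates incubated 18 hours at 35° C after inoculation of ~10^4 CFU (Steers device), with MIC reported in mcg/ml.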

[2] = system: Serratia marcescens F 0-35; settings: Serratia marcescens, F035, 18 h, 35° C., read-out: MIC
Method in brief: as §1

[3] = system: Staphylococcus aureus VGH 84-46; settings: Staphylococcus aureus, VGH8446, 18 h, 35° C., read-out: MIC
Method in brief: as §1

[4] = system: Morganella morganii CMC 84-37; settings: Morganella morganii, CMC8437, 18 h, 35° C., read-out: MIC
Method in brief: as §1

[5] = system: Staphylococcus aureus ATCC 25913; settings: ATCC25913, 18 hours, 35° C.
Method in brief: as §1

[6] = system: Enterobacter cloacae K 84-10; settings: Enterobacter cloacae, K8410, 18 h, 35° C., read-out: MIC
Method in brief: as §1

[7] = system: Staphylococcus epidermidis CMC 83-135; settings: CMC83135, 18 hours, 35° C., read-out: MIC
Method in brief: as §1

[8] = system: Staphylococcus Spp saprophiticus VGH 84-50; settings: 18 hours, 35° C., read-out: MIC
Method in brief: as §1

[9] = system: Klebsiella pneumoniae MOR 84-4; settings: Klebsiella pneumoniae, MOR844, 18 h, 35° C., read-out: MIC
Method in brief: as §1

[10] = system: Proteus rettgeri CMC 84-41; settings: Providencia rettgeri, CMC8441, 18 h, 35° C., read-out: MIC
Method in brief: as §1

[11] = system: Staphylococcus aureus CMC 83-128; settings: CMC83128, 18 hours, 35° C., read-out: MIC
Method in brief: as §1

[12] = system: Staphylococcus aureus CMC 83-127; settings: Staphylococcus aureus, CMC83127, 18 h, 35° C., read-out: MIC
Method in brief: as §1

[13] = system: Escherichia coli PRNT 311; settings: PRNT311, 18 hours, 35° C., read-out: MIC
Method in brief: as §1

[14] = system: Enterobacter aerogenes VGH 84-36; settings: Klebsiella aerogenes, VGH8436, 18 hours, 35° C., read-out: MIC
Method in brief: as §1

[15] = system: Staphylococcus aureus ATTC 29213; settings: Staphylococcus aureus, ATTC29213, 18 h, 35° C., read-out: MIC
Method in brief: as §1

[16] = system: Streptococcus faecalis VGH 84-65; settings: Enterococcus faecalis, VGH8465, 18 h, 35° C., read-out: MIC
Method in brief: as §1

[17] = system: Escherichia coli NAR 311; settings: NAR311, 18 hours, 35° C., read-out: MIC
Method in brief: as §1

[18] = system: Enterobacter cloacae VGH 84-37; settings: Enterobacter cloacae, VGH8437, 18 h, 35° C., read-out: MIC
Method in brief: as §1

[19] = system: Morganella morganii VGH 84-11; settings: VGH8411, 18 hours, 35° C., read-out: MIC
Method in brief: as §1

[20] = system: Serratia marcescens K 84-18; settings: Serratia marcescens, K8418, 18 h, 35° C., read-out: MIC
Method in brief: as §1

[21] = system: Staphylococcus aureus Smith; settings: Staphylococcus aureus, 18 h, 35° C., read-out: MIC
Method in brief: as §1

[22] = system: Pseudomonas aeruginosa VGH 84-4; settings: Pseudomonas aeruginosa, VGH844, 18 h, 35° C., read-out: MIC
Method in brief: as §1

[23] = system: Streptococcus faecalis ATTC 29212; settings: Enterococcus faecalis, ATTC29212, 18 hours, 35° C., read-out: MIC
Method in brief: as §1

[24] = system: Klebsiella oxytoca MOR 84-28; settings: MOR8428, 18 hours, 35° C.
Method in brief: as §1

[25] = system: Staphylococcus epidermidis VGH 84-40; settings: VGH8440, 18 hours, 35° C., read-out: MIC
Method in brief: as §1

[26] = system: Staphylococcus epidermidis IO 83-58; settings: IO8358, 18 hours, 35° C., read-out: MIC
Method in brief: as §1

[27] = system: Staphylococcus aureus VGH 84-45; settings: Staphylococcus aureus, VGH8445, 18 h, 35° C., read-out: MIC
Method in brief: as §1

[28] = system: Pseudomonas aeruginosa LL-1244; settings: Pseudomonas aeruginosa, LL1244, 18 h, 35° C., read-out: MIC
Method in brief: as §1

[29] = system: Escherichia coli CMC 84-11; settings: Escherichia coli, CMC8411, 18 h, 35° C., read-out: MIC
Method in brief: as §1

[30] = system: Escherichia coli ATCC 25922; settings: Escherichia coli, ATCC25922, 18 h, 35° C., read-out: MIC
Method in brief: as §1

[31] = system: Klebsiella pneumoniae AD; settings: Klebsiella pneumoniae, 18 h, 35° C., read-out: MIC
Method in brief: as §1

| SMILES | MIC [1] [µg/mL] | MIC [2] [µg/mL] | MIC [3] [µg/mL] | MIC [4] [µg/mL] | MIC [6] [µg/mL] | MIC [7] [µg/mL] | MIC [8] [µg/mL] | MIC [9] [µg/mL] | MIC [10] [µg/mL] | MIC [11] [µg/mL] | MIC [12] [µg/mL] | MIC [13] [µg/mL] | MIC [14] [µg/mL] | MIC [15] [µg/mL] | MIC [16] [µg/mL] | MIC [17] [µg/mL] | MIC [18] [µg/mL] | MIC [19] [µg/mL] | MIC [20] [µg/mL] | MIC [21] [µg/mL] | further results |
| --- | --- | --- | --- | --- | --- | --- | --- | --- | --- | --- | --- | --- | --- | --- | --- | --- | --- | --- | --- | --- | --- |
| CCn1cc(C(=O)O)c(=O)c2cc(F)c(N3CCNC(c4sc5ccccc5c4C)C3)cc21 (stereo not shown) [Example 22, 1-Ethyl-6-fluoro-1,4-dihydro-7-[3-(3-methylbenzo[b]-thien-2-yl)-1-piperazinyl]-4-oxo-3-quinolinecarboxylic acid] | > 256 | > 256 | 2 (≈ 4.3 µM) | 256 (≈ 550 µM) | > 256 | 2 (≈ 4.3 µM) | 32 (≈ 68.7 µM) | > 256 | 256 (≈ 550 µM) | 4 (≈ 8.59 µM) | 0.5 (≈ 1.07 µM) | > 256 | > 256 | 4 (≈ 8.59 µM) | 256 (≈ 550 µM) | > 256 | > 256 | 256 (≈ 550 µM) | > 256 | 2 (≈ 4.3 µM) | MIC [5]: 4 µg/mL (≈ 8.59 µM); MIC [22]: > 256 µg/mL; MIC [23]: 256 µg/mL (≈ 550 µM); MIC [24]: > 256 µg/mL; MIC [25]: 0.5 µg/mL (≈ 1.07 µM); MIC [26]: 8 µg/mL (≈ 17.2 µM); MIC [27]: 2 µg/mL (≈ 4.3 µM); MIC [28]: > 256 µg/mL; MIC [29]: > 256 µg/mL; MIC [30]: > 256 µg/mL; MIC [31]: > 256 µg/mL |
| CCCCCCOCC1CN(c2cc3c(cc2F)c(=O)c(C(=O)O)cn3CC)CCN1 (stereo not shown) [Example 77, 1-Ethyl-6-fluoro-7-[3-[(hexyloxy)methyl]-1-piperazinyl]-1,4-dihydro-4-oxo-3-quinolinecarboxylic acid] | 2 (≈ 4.61 µM) | 8 (≈ 18.5 µM) | 0.5 (≈ 1.15 µM) | 4 (≈ 9.23 µM) | 4 (≈ 9.23 µM) | 1 (≈ 2.31 µM) | 2 (≈ 4.61 µM) | 4 (≈ 9.23 µM) | 8 (≈ 18.5 µM) | 0.5 (≈ 1.15 µM) | 0.25 (≈ 0.577 µM) | 2 (≈ 4.61 µM) | 4 (≈ 9.23 µM) | 1 (≈ 2.31 µM) | 8 (≈ 18.5 µM) | 32 (≈ 73.8 µM) | 4 (≈ 9.23 µM) | 4 (≈ 9.23 µM) | 16 (≈ 36.9 µM) | 2 (≈ 4.61 µM) | MIC [22]: 128 µg/mL (≈ 295 µM); MIC [23]: 8 µg/mL (≈ 18.5 µM); MIC [24]: 8 µg/mL (≈ 18.5 µM); MIC [25]: 0.25 µg/mL (≈ 0.577 µM); MIC [26]: 1 µg/mL (≈ 2.31 µM); MIC [27]: 0.5 µg/mL (≈ 1.15 µM); MIC [28]: > 256 µg/mL; MIC [29]: 2 µg/mL (≈ 4.61 µM); MIC [30]: 2 µg/mL (≈ 4.61 µM); MIC [31]: 4 µg/mL (≈ 9.23 µM) |
| CCCCCCOCC1CN(c2cc3c(cc2F)c(=O)c(C(=O)O)cn3CC)CCN1C (stereo not shown) [Example 78, 1-Ethyl-6-fluoro-7-[3-[(hexyloxy)methyl]-4-methyl-1-piperazinyl]-1,4-dihydro-4-oxo-3-quinolinecarboxylic acid] | 32 (≈ 71.5 µM) | > 256 | 4 (≈ 8.94 µM) | 32 (≈ 71.5 µM) | 64 (≈ 143 µM) | 4 (≈ 8.94 µM) | 8 (≈ 17.9 µM) | 64 (≈ 143 µM) | 64 (≈ 143 µM) | 4 (≈ 8.94 µM) | 1 (≈ 2.23 µM) | 16 (≈ 35.8 µM) | 64 (≈ 143 µM) | 4 (≈ 8.94 µM) | 16 (≈ 35.8 µM) | 256 (≈ 572 µM) | 64 (≈ 143 µM) | 32 (≈ 71.5 µM) | > 256 | 8 (≈ 17.9 µM) | MIC [22]: > 256 µg/mL; MIC [23]: 16 µg/mL (≈ 35.8 µM); MIC [24]: 64 µg/mL (≈ 143 µM); MIC [25]: 2 µg/mL (≈ 4.47 µM); MIC [26]: 8 µg/mL (≈ 17.9 µM); MIC [27]: 8 µg/mL (≈ 17.9 µM); MIC [28]: > 256 µg/mL; MIC [29]: 32 µg/mL (≈ 71.5 µM); MIC [30]: 32 µg/mL (≈ 71.5 µM); MIC [31]: 64 µg/mL (≈ 143 µM) |
